The source of these data is publication PMC6572618, “Anti-Trypanosomal and Antimalarial Properties of Tetralone Derivatives and Structurally Related Benzocycloalkanones” (Medicina, 2019).

The structures appear in SMILES notation. Read-outs that look alike come from different tables or passages of the source.

Type in all cases: cell-based
Data set [1] concerns 427 Trypanosoma brucei brucei trypomastigotes. Briefly: In vitro anti-trypanosomal assay (resazurin). The conditions noted are these: 48 h; for viability at 20 µM / % Viability at 20 µM (SD) T.b. brucei: 20 µM compound, % parasite viability relative to untreated control; for viability at 20 µM: read-out: % Viability at 20 µM (SD) T.b. brucei; for IC50: three-fold serial dilutions from 100 µM, read-out: IC50 (µM) T. b. brucei. The protocol: The activity of the compounds against 427 Trypanosoma brucei brucei trypomastigotes was determined as previously described. Briefly, parasites were incubated in 96-well plates with 20 µM or three-fold serial dilutions (100 µM starting concentration) of test compounds in Iscove’s modified Dulbecco’s medium (IMDM) (Lonza, Basel, Switzerland) supplemented with 10% fetal calf serum, HMI-9 supplement, hypoxanthine, and penicillin/streptomycin at 37 °C in a 5% CO2 incubator. After 48 h, 20 µL of resazurin reagent (0.135 mg/mL resazurin in phosphate-buffered saline) was added to each well and the fluorescence (Ex560/Em590) read after 2–4 h in a Spectramax M3 plate reader (Molecular Devices, San Jose, CA, USA). The fluorescence readings were used to calculate % parasite viability relative to the readings obtained from the wells containing untreated control parasite cultures. The IC50 values were determined by plotting % viability vs. log(compound) and performing a non-linear regression using a GraphPad Prism (v. 5.02) (San Diego, CA, USA).
(§1) Thirty-five tetralone derivatives (see Figure 2) and six related benzocycloalkanones (see Figure 3) were evaluated in vitro against T. b. brucei for antitrypanosomal activity through the resazurin assay protocol. The compounds were also evaluated against the chloroquine-sensitive strain (3D7) of P. falciparum for antimalarial activity using pLDH assay and against the HeLa cell line for cytotoxicity evaluation using the resazurin assay protocol.

The nature of data set [2]: In vitro cytotoxicity assay (resazurin). Particulars: human, 20 µM compound, 24 h, % cell viability relative to untreated control, read-out: % Viability at 20 µM (SD) HeLa Cell. The protocol:
(§2) As previously described, HeLa cells (Cellonex, Johannesburg, South Africa) were seeded in 96-well plates at a density of 2 × 10^4 cells/well in Dulbecco’s modified Eagle’s medium (DMEM) (Lonza, Basel, Switzerland) supplemented with 10% fetal calf serum and antibiotics (penicillin/streptomycin/amphotericin B) and incubated overnight at 37 °C in a 5% CO2 incubator. Compounds were added to the cells at a final concentration of 20 µM, and incubation continued for 24 h. The cell viability in the wells was assessed by adding 20 µL of resazurin reagent (0.135 mg/mL resazurin in phosphate-buffered saline) and reading the fluorescence (Ex560/Em590) after an additional 2–4 h incubation. The fluorescence readings were converted to % cell viability relative to the average readings obtained from the untreated control wells.
as §1

In data set [3] the test system is chloroquine sensitive strain of P. falciparum (3D7). The data set can be described thus: In vitro antiplasmodial assay (parasite lactate dehydrogenase, pLDH). Particulars: for viability at 20 µM: Plasmodium falciparum, 3D7, 48 h, read-out: % Viability at 20 µM (SD) 3D7. The protocol: An antimalarial evaluation was performed against the chloroquine sensitive strain of P. falciparum (3D7) using the parasite lactate dehydrogenase (pLDH) assay as previously reported. Parasites were seeded at 2% parasitemia and 1% hematocrit in 96 well plates and were incubated with 20 µM of the test compounds for 48 h in culture medium consisting of Rosell Park Memorial Institute (RPMI 1640; Lonza, Basel, Switzerland) containing 25 mM 4-(2-hydroxyethyl)-1-piperazineethanesulfonic acid (HEPES), supplemented with 0.5% (w/v) Albumax II, 22 mM glucose, 0.65 mM hypoxanthine, 0.05mg/mL gentamicin, and 1% (v/v) human erythrocytes, at 37 °C under an atmosphere of 5% CO2, 5% O2, and 90% N2. The parasite lactate dehydrogenase activity in the wells was determined using the colorimetric assay method of Makler et al.. The absorbance readings were converted to % parasite viability relative to the wells containing untreated parasites.
as §1

In the next data set the test system is HeLa cells. Briefly: In vitro cytotoxicity assay (resazurin). Particulars: 20 µM compound, 24 h, % cell viability relative to untreated control. The protocol:
as §2, §1

[4] abbreviates: 20 µM compound, 48 h, P. falciparum 3D7, % parasite viability relative to untreated parasites.

As to `N#Cc1cccc(/C=C2\CCc3ccccc3C2=O)c1` [Compound 1], in data set [1] (Trypanosoma brucei), the viability at 20 µM worked out at 0.06% and the IC50 was 2.3 µM. Also, in data set [2] (HeLa cells), the viability at 24 h, 20 µM came out at 87%. Besides, the viability at 20 µM in data set [3] (setting [4]) is 113%.
For `COc1ccc(/C=C2\CCc3ccccc3C2=O)cc1` [Compound 4], in data set [1] (Trypanosoma brucei), the viability at 20 µM was 0.5% and the IC50 was found to be 6.7 µM. Further, the viability at 24 h, 20 µM in data set [2] (HeLa cells) came out at 76%. In data set [3] (setting [4]), the viability at 20 µM was found to be 100%.
Turning to `O=C1/C(=C/c2cccc(F)c2)CCc2ccccc21` [Compound 6], in data set [1] (Trypanosoma brucei), the viability at 20 µM was determined as 0.5% and the 50% inhibitory concentration (IC50) turned out to be 3.1 µM. Moreover, the viability at 24 h, 20 µM in data set [2] (HeLa cells) was 121%. In addition, the viability at 20 µM in data set [3] (setting [4]) turned out to be 131%.
Turning to `O=C1/C(=C/c2ccccc2)CCc2cc(O)ccc21` [Compound 7], the “% Viability at 20 µM (SD) T.b. brucei” value in data set [1] (20 µM) is recorded as 0.6 (0.2) %. In addition, the viability at 20 µM in data set [1] (Trypanosoma brucei) amounted to 0.66%; in data set [3] (setting [4]) it was 89%. The half-maximal inhibitory concentration (IC50) was found to be 0.4 µM in data set [1] (Trypanosoma brucei) and 0.46 µM in data set [1]. Also, the viability at 24 h, 20 µM in data set [2] (HeLa cells) is 54%.
With `COc1ccc2c(c1)C(=O)/C(=C/c1ccccc1)CC2` [Compound 10], the IC50 in data set [1] (Trypanosoma brucei) was 1.04 µM. For the same compound, the viability at 24 h, 20 µM in data set [2] (HeLa cells) was found to be 65%. In data set [3] (setting [4]), the viability at 20 µM stood at 113%.
Consider `O=C1/C(=C/c2ccc(F)cc2)CCc2ccc(O)cc21` [Compound 12], for which, in data set [1] (Trypanosoma brucei), the viability at 20 µM was -0.6% and the IC50 came to 0.6 µM. The IC50 in data set [1] was determined as 0.68 µM. Besides, the viability at 24 h, 20 µM in data set [2] (HeLa cells) worked out at 29%.
On to `O=C1/C(=C/c2ccc(Br)cc2)CCc2ccc(O)cc21` [Compound 16], for which the viability at 20 µM in data set [1] (Trypanosoma brucei) is 0.1%; in data set [3] (setting [4]) it was 43%. Also, the IC50 in data set [1] (Trypanosoma brucei) worked out at 1.24 µM. Moreover, the viability at 24 h, 20 µM in data set [2] (HeLa cells) is 62%.
As to `Cc1ccc(/C=C2\CCc3ccc(O)cc3C2=O)cc1` [Compound 20], in data set [1] (Trypanosoma brucei), the viability at 20 µM is -0.4% and the IC50 was 5.3 µM. Moreover, the viability at 24 h, 20 µM in data set [2] (HeLa cells) turned out to be 69%. The viability at 20 µM in data set [3] (setting [4]) came to 116%.
Consider `O=C1/C(=C/c2cccnc2)CCc2ccccc21` [Compound 25], for which the “% Viability at 20 µM (SD) T.b. brucei” value in data set [1] is on record as −0.7 (0.4) %. Also, the “% Viability at 20 µM (SD) HeLa Cell” value in the data set on HeLa cells is recorded as 24 (0.4) %. In addition, in data set [3], the “% Viability at 20 µM (SD) 3D7” value is recorded as 29 (12) %.
Take `COc1ccc2c(c1)C(=O)/C(=C/C1CCCCC1)CC2` [Compound 26]: the results for the viability at 20 µM in data set [1] (Trypanosoma brucei) and in data set [3] (setting [4]) were under 1% and 119%, respectively. For the same compound, the viability at 24 h, 20 µM in data set [2] (HeLa cells) came out at 92%.
For `COc1ccc2c(c1)C(=O)/C(=C/C1CCCC1)CC2` [Compound 27], in data set [1] (Trypanosoma brucei), the viability at 20 µM was under 1% and the IC50 was 5.4 µM. In addition, in data set [2] (HeLa cells), the viability at 24 h, 20 µM came out at 85%. Besides, the viability at 20 µM in data set [3] (setting [4]) turned out to be 81%.
Turning to `COc1ccc2c(c1)C(=O)/C(=C/c1ccco1)CC2` [Compound 28], the “% Viability at 20 µM (SD) T.b. brucei” value in data set [1] is listed as 31 (5) %. For the same compound, the “% Viability at 20 µM (SD) HeLa Cell” value in the data set on HeLa cells is reported as 97 (9) %. Besides, the “% Viability at 20 µM (SD) 3D7” value in data set [3] is 100 (3) %.
As for `COc1ccc2c(c1)C(=O)/C(=C/c1ccc[nH]1)CC2` [Compound 29], the “% Viability at 20 µM (SD) T.b. brucei” value in data set [1] is listed as 103 (1) %. Moreover, the “% Viability at 20 µM (SD) HeLa Cell” value with HeLa cells is 97 (5) %. Besides, the “% Viability at 20 µM (SD) 3D7” value in data set [3] was 115 (5) %.
As to `COc1ccc2c(c1)C(=O)/C(=C/c1cccs1)CC2` [Compound 30], the “% Viability at 20 µM (SD) T.b. brucei” value in data set [1] is 32 (9) %. For the same compound, the “% Viability at 20 µM (SD) HeLa Cell” value in the data set on HeLa cells is listed as 106 (2) %. The “% Viability at 20 µM (SD) 3D7” value in data set [3] is on record as 107 (6) %.
Take `COc1ccc2c(c1)C(=O)/C(=C/c1ccccn1)CC2` [Compound 33]: the “% Viability at 20 µM (SD) T.b. brucei” value in data set [1] is on record as −0.4 (0.2) %. In the data set on HeLa cells, the “% Viability at 20 µM (SD) HeLa Cell” value is 20 (0.6) %. Further, in data set [3], the “% Viability at 20 µM (SD) 3D7” value is 7 (8) %.
Consider `COc1ccc2c(c1)C(=O)/C(=C/c1cccnc1Cl)CC2` [Compound 34], for which the “% Viability at 20 µM (SD) T.b. brucei” value in data set [1] was 98 (2) %. The “% Viability at 20 µM (SD) HeLa Cell” value with HeLa cells was 47 (1.7) %. For the same compound, the “% Viability at 20 µM (SD) 3D7” value in data set [3] was 113 (6) %.
As to `COc1ccc2c(c1)C(=O)/C(=C/c1ccsc1)CC2` [Compound 35], in data set [1] (Trypanosoma brucei), the viability at 20 µM turned out to be 22% and the IC50 is 2.6 µM. For the same compound, the viability at 24 h, 20 µM in data set [2] (HeLa cells) worked out at 122%. Further, the viability at 20 µM in data set [3] (setting [4]) was 86%.
With `O=C1/C(=C/c2ccc(Cl)cc2)Cc2ccccc21` [Compound 36], the “% Viability at 20 µM (SD) T.b. brucei” value in data set [1] (20 µM) was 99 (0.1) %. Moreover, the “% Viability at 20 µM (SD) HeLa Cell” value in the data set with HeLa cells is on record as 74 (10) %. Also, the “% Viability at 20 µM (SD) 3D7” value in data set [3] is 93 (3) %.
Turning to `O=C1/C(=C/c2ccc(Cl)cc2)CCCc2ccccc21` [Compound 37], the “% Viability at 20 µM (SD) T.b. brucei” value in data set [1] (20 µM) is 0.3 (0.3) %. Further, in the data set with HeLa cells, the “% Viability at 20 µM (SD) HeLa Cell” value was 53 (10) %. The “% Viability at 20 µM (SD) 3D7” value in data set [3] is 113 (0.6) %.
For the compound `O=C1/C(=C/c2ccc(Cl)cc2)COc2ccccc21` [Compound 38], in data set [1] (20 µM), the “% Viability at 20 µM (SD) T.b. brucei” value is listed as 0.4 (0.2) %. For the same compound, in data set [1] (Trypanosoma brucei), the IC50 was found to be 0.4 µM. Also, in data set [2], the viability at 24 h, 20 µM came out at 75%. For the same compound, the viability at 20 µM in data set [3] worked out at 98%.
In the case of `O=C1/C(=C/c2ccc(Cl)cc2)CSc2ccccc21` [Compound 39], in data set [1] (20 µM), the “% Viability at 20 µM (SD) T.b. brucei” value is reported as 0.3 (0.3) %. Moreover, the “% Viability at 20 µM (SD) HeLa Cell” value in the data set on HeLa cells was 8 (2) %. Besides, the “% Viability at 20 µM (SD) 3D7” value in data set [3] is listed as 11 (0.9) %.
For `O=c1c(Cc2ccc(Cl)cc2)coc2ccccc12` [Compound 40] the same measures were 94 (7) %, 103 (3) % and 90 (6) %.
`O=c1c(Cc2ccc(Cl)cc2)csc2ccccc12` [Compound 41]: in data set [1] (20 µM), the “% Viability at 20 µM (SD) T.b. brucei” value is reported as 103 (0.3) %. In the data set with HeLa cells, the “% Viability at 20 µM (SD) HeLa Cell” value is given as 109 (7) %. In addition, the “% Viability at 20 µM (SD) 3D7” value in data set [3] was 107 (5) %.
